Converted amounts (≈) assume the structure as drawn. Where two headings read alike, the source gives them in different places.
Assays:
[1] = Thermodynamic solubility determination; assay type: physicochemical; settings: for solubility at 24 h: phosphate buffer, pH 7.4, 37 °C, read-out: Solubility Therm.
In vivo mouse PK = settings: for Vd / clearance / bioavailability: female, NMRI, plasma; for Vd / clearance: iv; for clearance: Cl; for bioavailability: po, 0.5 mg/kg
[2] = Caco-2 Papp determination; settings: human, Caco-2, pH 7.4
[3] = system: WNT-dependent signaling, 7dF3 cells (HEK293); experiment: 7dF3 luciferase reporter assay; assay type: cell-based, human
[4] = human
[5] = Mouse Clint determination; assay type: in vitro ADME; settings: compared to 25
Description: Mouse, Rat, and Human Clint Determination
Microsomes (final concentration 0.5 mg/mL), 50 mM phosphate buffer pH 7.4, and compound (final concentration 1 μM) were added to the assay plate and allowed to preincubate for 5 min at 37 °C. The reaction was initiated by the addition of NADPH (final concentration 1.5 mM), and the plate was shaken at 800 rpm at 37 °C. After 0, 5, 10, 20, and 30 min aliquots were taken and the reaction was stopped using cold acetonitrile. The samples were centrifuged at 4000 rpm for 30 min at 4 °C and analyzed by LC–MS/MS. Four test compounds were pooled for analysis. The in vitro intrinsic clearance was calculated from the rate of compound disappearance.

Compound	solubility at 24 h ([1]; pH 7.4, TFA salt) [µg/mL]	Vd (In vivo mouse PK; 0.2 mg/kg) [L/kg]	clearance (In vivo mouse PK; 0.2 mg/kg, 0.2 mg/kg iv) [mL/min/kg]	bioavailability (In vivo mouse PK) [%]	Papp A→B at 2 h, 1 μM [2] [×10⁻⁶ cm/s]	efflux ratio at 2 h, 1 μM [2]	other results
O=C1NCCC12CCN(c1c(Cl)cncc1-c1ccc(-c3cnn(CCO)c3)cc1)CC2 [Compound 17]	112	1.61	47.2	7	22.7	19.5	–
CN1c2ccc(-c3cnc(N)c(Cl)c3N3CCC4(CC3)CNC(=O)O4)cc2CS1(=O)=O [Compound 90]	2	1.81	36	9	10.3	–	–
O=C1NCCC12CCN(c1c(Cl)cncc1-c1ccc3c(c1)CS(=O)(=O)N3)CC2 [Compound 22]	759	1.19	84	11	4.9	–	drop in cell-based potency ([3]; 7dF3, compared to 6): 23 fold; improvement of thermodynamic aqueous solubility ([1]; compared to 6): 120 fold
Cn1cc(-c2ccc(-c3cnc(N)c(Cl)c3N3CCC4(CC3)NC(=O)NC4=O)cc2)cn1 [Compound 91]	< 1	–	–	–	9.6	–	–
Cn1cc(-c2ccc(-c3cnc(N)c(C(F)(F)F)c3N3CCC4(CC3)CNC(=O)O4)cc2)cn1 [Compound 95, 8-(2-Amino-5-(4-(1-methyl-1H-pyrazol-4-yl)phenyl)-3-(trifluoromethyl)pyridin-4-yl)-1-oxa-3,8-diazaspiro[4.5]decan-2-one 2,2,2-Trifluoroacetate]	8	1.93	25	42	29.1	–	–
Cn1cc(-c2ccc(-c3cncc(Cl)c3N3CCC4(CC3)NC(=O)CNC4=O)cc2)cn1 [Compound 48]	8	1.84	71.2	5	6.7	–	–
Cn1cc(-c2ccc(-c3cncc(Cl)c3N3CCC4(CCNC4=O)CC3)cc2)cn1 [Compound 6]	–	–	–	–	23.7	–	clearance [4]: 14.7 mL/min/kg; clearance prediction, iviv from hepatocytes (human): 8.83 mL/min/kg; clearance prediction, simple allometry (human): 24.2 mL/min/kg; F (human prediction): ∼70%; Vd (human prediction): ∼0.85 L/kg; t1/2 (human prediction): ∼0.70 h; Cl (human prediction, mean of all methods): ∼0.88 L/h/kg
CC1=NNC(=O)C12CCN(c1c(Cl)cncc1-c1ccc3c(c1)CS(=O)(=O)N3C)CC2 [Compound 49]	–	–	–	–	40	4.9	improvement in potency in the 7dF3 assay ([3]; compared to 23): 13 fold
Nc1ncc(-c2ccc3c(N)n[nH]c3c2)c(N2CCC3(CCNC3=O)CC2)c1Cl [Compound 87]	–	–	–	–	1.3	–	more stable in mouse Clint experiments [5]: at least 5 fold
Cn1cc(-c2ccc(-c3cncc(C(F)(F)F)c3N3CCC4(CC3)CNC(=O)O4)cc2)cn1 [Compound 72, 8-(3-(4-(1-Methyl-1H-pyrazol-4-yl)phenyl)-5-(trifluoromethyl)pyridin-4-yl)-1-oxa-3,8-diazaspiro[4.5]decan-2-one 2,2,2-Trifluoroacetate]	35	2.3	30.3	48	47.4	–	–
CC(C)(O)Cn1cc(-c2ccc(-c3cnc(N)c(Cl)c3N3CCC4(CCNC4=O)CC3)cc2)cn1 [Compound 86, 8-(2-Amino-3-chloro-5-(4-(1-(2-hydroxy-2-methylpropyl)-1H-pyrazol-4-yl)phenyl)pyridin-4-yl)-2,8-diazaspiro[4.5]decan-1-one]	–	1.22	17.8	7	25.4	42.7	–
CN1c2ccc(-c3cncc(Cl)c3N3CCC4(CC3)CNC(=O)O4)cc2CS1(=O)=O [Compound 42, 8-(3-Chloro-5-(1-methyl-2,2-dioxido-1,3-dihydrobenzo[c]isothiazol-5-yl)pyridin-4-yl)-1-oxa-3,8-diazaspiro[4.5]decan-2-one]	53	1.34	47.7	–	16.6	–	–
Cc1nc(-c2ccc(-c3cncc(Cl)c3N3CCC4(CCNC4=O)CC3)cc2)cn1C [Compound 21]	33	6.41	278	12	18.8	–	–
CN1c2ccc(-c3cnc(N)c(F)c3N3CCC4(CCNC4=O)CC3)cc2CS1(=O)=O [Compound 92, 8-(2-Amino-3-fluoro-5-(1-methyl-2,2-dioxido-1,3-dihydrobenzo[c]isothiazol-5-yl)pyridin-4-yl)-2,8-diazaspiro[4.5]decan-1-one]	–	0.86	21.3	37	23.9	29.5	–
CN1c2ccc(-c3cncc(F)c3N3CCC4(CCNC4=O)CC3)cc2CS1(=O)=O [Compound 61, 8-(3-Fluoro-5-(1-methyl-2,2-dioxido-1,3-dihydrobenzo[c]isothiazol-5-yl)pyridin-4-yl)-2,8-diazaspiro[4.5]decan-1-one]	–	1.86	132	5	32.9	3	Cl (In vivo mouse PK; 0.2 mg/kg iv, 0.2 mg/kg): 132 mL/min/kg
CC(C)(O)Cn1cc(-c2ccc(-c3cncc(Cl)c3N3CCC4(CCNC4=O)CC3)cc2)cn1 [Compound 18]	–	0.8	16.5	–	32	26.1	solubility at 24 h ([1]; pH 7.4, free base): 33 µg/mL (≈ 68.7 µM)
Cn1cc(-c2ccc(-c3cnc(N)c(Cl)c3N3CCC4(CC3)CNC(=O)O4)cc2)cn1 [Compound 89]	5	1.4	22.5	35	48.3	–	–
Cn1cc(-c2ccc(-c3cncc(Cl)c3N3CCC4(CC3)NC(=O)NC4=O)cc2)cn1 [Compound 45]	39	1.26	26	11	15.9	–	–
Cn1cc(-c2ccc(-c3cncc(Cl)c3N3CCC4(CC3)NCNC4=O)cc2)cn1 [Compound 44]	–	1.12	51.2	20	19.1	–	–
CC1=NC2(CCN(c3c(Cl)cncc3-c3ccc4c(c3)CS(=O)(=O)N4C)CC2)C(=O)N1 [Compound 47]	613	1.96	69.2	9	19.8	–	–
Cn1cc(-c2ccc(-c3cnc(N)c(Cl)c3N3CCC4(CCNC4=O)CC3)cc2)cn1 [Compound 85]	–	0.74	11.2	61	37	4.9	–
CN1c2ccc(-c3cncc(F)c3N3CCC4(CC3)CNC(=O)O4)cc2CS1(=O)=O [Compound 63, 8-(3-Fluoro-5-(1-methyl-2,2-dioxido-1,3-dihydrobenzo[c]isothiazol-5-yl)pyridin-4-yl)-1-oxa-3,8-diazaspiro[4.5]decan-2-one]	–	2.67	87.5	27	16	6.5	–
Nc1n[nH]c2cc(-c3cncc(Cl)c3N3CCC4(CCNC4=O)CC3)ccc12 [Compound 25, 8-(3-(3-Amino-1H-indazol-6-yl)-5-chloropyridin-4-yl)-2,8-diazaspiro[4.5]decan-1-one]	540	1.21	29.2	5	0.03	–	–
